This is an account of results in patent publication US8558002B2, “Sulfoximines as kinase inhibitors” (Allergan, Inc., priority 2006, dated 2013).

One assay has as its target T1, PDGFRβ (Homo sapiens, UniProt P09619).
T1 construct: 200-300 ng purified cytoplasmic domain PDGFR-b protein (Millipore); purchased Millipore
The assay can be described thus: PDGFRβ Kinase Assay (poly-Glu-Tyr ELISA). It is filed as biochemical. As to conditions: purified cytoplasmic domain PDGFR-b protein, 36 μM ATP. The method, then: Biochemical PDGFRβ kinase assays were performed in 96 well microtiter plates that were coated overnight with 75 μg of poly-Glu-Tyr (4:1) in 10 mM Phosphate Buffered Saline (PBS), pH 7.4. The coated plates were washed with 2 mls per well PBS+0.05% Tween-20 (PBS-T), blocked by incubation with PBS containing 1% BSA, then washed with 2 mls per well PBS-T prior to starting the reaction. Reactions were carried out in 100 μL reaction volumes containing 36 μM ATP in kinase buffer (50 mM Hepes buffer pH 7.4, 20 mM MgCl2, 0.1 mM MnCl2 and 0.2 mM Na3VO4). Test compounds were reconstituted in 100% DMSO and added to the reaction to give a final DMSO concentration of 5%. Reactions were initiated by the addition 20 ul per well of kinase buffer containing 200-300 ng purified cytoplasmic domain PDGFR-b protein (Millipore). Following a 60 minute incubation at 30° C., the reactions were washed 2 mls per well PBS-T. […] of a monoclonal anti-phosphotyrosine antibody-peroxidase conjugate diluted 1:10,000 in PBS-T was added to the wells for 30 minutes. Following a 2 mls per well wash with PBS-Tween-20, 100 μl of O-Phenylenediamine Dihydrochloride in phosphate-citrate buffer, containing urea hydrogen peroxide, was added to the wells for 7-10 minutes as a colorimetric substrate for the peroxidase. The reaction was terminated by the addition of 100 μl of 2.5N H2SO4 to each well and read using a microplate ELISA reader set at 492 nm. IC50 values for compound inhibition were calculated directly from graphs of optical density (arbitrary units) versus compound concentration following subtraction of blank values.

The target in assay [1] is T2, VEGFR2 (Homo sapiens, UniProt P35968). As to the kind of experiment: VEGFR2 Kinase Assay (biochemical KDR kinase, poly-Glu-Tyr ELISA). The arrangement: 200-300 ng purified cytoplasmic domain KDR protein; purchased BPS Bioscience. As to conditions: purified cytoplasmic domain KDR protein, 2.7 μM ATP. How it is done:
Biochemical KDR kinase assays were performed in 96 well microtiter plates that were coated overnight with 75 μg/well of poly-Glu-Tyr (4:1) in 10 mM Phosphate Buffered Saline (PBS), pH 7.4. The coated plates were washed with 2 mls per well PBS+0.05% Tween-20 (PBS-T), blocked by incubation with PBS containing 1% BSA, then washed with 2 mls per well PBS-T prior to starting the reaction. Reactions were carried out in […] reaction volumes containing 2.7 μM ATP in kinase buffer (50 mM Hepes buffer pH 7.4, 20 mM MgCl2, 0.1 mM MnCl2 and 0.2 mM Na3VO4). Test compounds were reconstituted in 100% DMSO and added to the reaction to give a final DMSO concentration of 5%. Reactions were initiated by the addition 20 ul per well of kinase buffer containing 200-300 ng purified cytoplasmic domain KDR protein (BPS Bioscience, San Diego, Calif.). Following a 15 minute incubation at 30° C., the reactions were washed 2 mls per well PBS-T. 100 μl of a monoclonal anti-phosphotyrosine antibody-peroxidase conjugate diluted 1:10,000 in PBS-T was added to the wells for 30 minutes. Following a 2 mls per well wash with PBS-Tween-20, 100 μl of O-Phenylenediamine Dihydrochloride in phosphate-citrate buffer, containing urea hydrogen peroxide, was added to the wells for 7-10 minutes as a colorimetric substrate for the peroxidase. The reaction was terminated by the addition of 100 μl of 2.5NH2SO4 to each well and read using a microplate ELISA reader set at 492 nm. IC50 values for compound inhibition were calculated directly from graphs of optical density (arbitrary units) versus compound concentration following subtraction of blank values.
Target sequence in this assay (P35968 786-1356 limits assumed): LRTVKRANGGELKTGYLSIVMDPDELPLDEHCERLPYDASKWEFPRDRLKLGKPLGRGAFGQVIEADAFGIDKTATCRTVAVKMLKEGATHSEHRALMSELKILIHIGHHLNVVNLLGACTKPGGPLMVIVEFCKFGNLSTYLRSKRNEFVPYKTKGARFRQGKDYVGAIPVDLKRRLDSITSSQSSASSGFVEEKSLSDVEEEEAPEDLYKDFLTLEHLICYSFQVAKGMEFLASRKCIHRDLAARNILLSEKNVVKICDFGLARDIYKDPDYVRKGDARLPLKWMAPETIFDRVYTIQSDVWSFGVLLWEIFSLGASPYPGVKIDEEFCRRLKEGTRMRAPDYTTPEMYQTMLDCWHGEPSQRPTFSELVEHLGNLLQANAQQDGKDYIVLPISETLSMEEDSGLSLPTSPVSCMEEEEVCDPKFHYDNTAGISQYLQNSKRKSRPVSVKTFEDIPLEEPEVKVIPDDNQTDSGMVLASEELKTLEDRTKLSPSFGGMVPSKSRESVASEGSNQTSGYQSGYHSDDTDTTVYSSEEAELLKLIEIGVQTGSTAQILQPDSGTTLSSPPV

Assay [2] concerns the target T2, VEGFR2. The assay can be described thus: VEGFR2 Cellular Assay (FLIPR, VEGF induced increases in intracellular calcium in HUVEC). It is filed as cell-based. Further details: host or cells: HUVEC. The following applies: VEGF165 stimulation (10 ng/mL), Fluo-4. How it is done: Automated FLIPR (Fluorometric Imaging Plate Reader) technology was used to screen for inhibitors of VEGF induced increases in intracellular calcium levels in fluorescent dye loaded endothelial cells. HUVEC (human umbilical vein endothelial cells) (Clonetics) were seeded in 384-well fibronectin coated black-walled plates overnight @ 37° C./5% CO2. Cells were loaded with calcium indicator Fluo-4 for 45 minutes at 37° C. Cells were washed 2 times (El×405, Biotek Instruments) to remove extracellular dye. For screening, cells were pre-incubated with test agents for 30 minutes, at a single concentration (10 uM) or at concentrations ranging from 0.0001 to 10.0 uM followed by VEGF165 stimulation (10 ng/mL). Changes in fluorescence at 516 nm were measured simultaneously in all 384 wells using a cooled CCD camera. Data were generated by determining max-min fluorescence levels for unstimulated, stimulated, and drug treated samples. IC50 values for test compounds were calculated from % inhibition of VEGF stimulated responses in the absence of inhibitor.
Target sequence in this assay (P35968 20-1356): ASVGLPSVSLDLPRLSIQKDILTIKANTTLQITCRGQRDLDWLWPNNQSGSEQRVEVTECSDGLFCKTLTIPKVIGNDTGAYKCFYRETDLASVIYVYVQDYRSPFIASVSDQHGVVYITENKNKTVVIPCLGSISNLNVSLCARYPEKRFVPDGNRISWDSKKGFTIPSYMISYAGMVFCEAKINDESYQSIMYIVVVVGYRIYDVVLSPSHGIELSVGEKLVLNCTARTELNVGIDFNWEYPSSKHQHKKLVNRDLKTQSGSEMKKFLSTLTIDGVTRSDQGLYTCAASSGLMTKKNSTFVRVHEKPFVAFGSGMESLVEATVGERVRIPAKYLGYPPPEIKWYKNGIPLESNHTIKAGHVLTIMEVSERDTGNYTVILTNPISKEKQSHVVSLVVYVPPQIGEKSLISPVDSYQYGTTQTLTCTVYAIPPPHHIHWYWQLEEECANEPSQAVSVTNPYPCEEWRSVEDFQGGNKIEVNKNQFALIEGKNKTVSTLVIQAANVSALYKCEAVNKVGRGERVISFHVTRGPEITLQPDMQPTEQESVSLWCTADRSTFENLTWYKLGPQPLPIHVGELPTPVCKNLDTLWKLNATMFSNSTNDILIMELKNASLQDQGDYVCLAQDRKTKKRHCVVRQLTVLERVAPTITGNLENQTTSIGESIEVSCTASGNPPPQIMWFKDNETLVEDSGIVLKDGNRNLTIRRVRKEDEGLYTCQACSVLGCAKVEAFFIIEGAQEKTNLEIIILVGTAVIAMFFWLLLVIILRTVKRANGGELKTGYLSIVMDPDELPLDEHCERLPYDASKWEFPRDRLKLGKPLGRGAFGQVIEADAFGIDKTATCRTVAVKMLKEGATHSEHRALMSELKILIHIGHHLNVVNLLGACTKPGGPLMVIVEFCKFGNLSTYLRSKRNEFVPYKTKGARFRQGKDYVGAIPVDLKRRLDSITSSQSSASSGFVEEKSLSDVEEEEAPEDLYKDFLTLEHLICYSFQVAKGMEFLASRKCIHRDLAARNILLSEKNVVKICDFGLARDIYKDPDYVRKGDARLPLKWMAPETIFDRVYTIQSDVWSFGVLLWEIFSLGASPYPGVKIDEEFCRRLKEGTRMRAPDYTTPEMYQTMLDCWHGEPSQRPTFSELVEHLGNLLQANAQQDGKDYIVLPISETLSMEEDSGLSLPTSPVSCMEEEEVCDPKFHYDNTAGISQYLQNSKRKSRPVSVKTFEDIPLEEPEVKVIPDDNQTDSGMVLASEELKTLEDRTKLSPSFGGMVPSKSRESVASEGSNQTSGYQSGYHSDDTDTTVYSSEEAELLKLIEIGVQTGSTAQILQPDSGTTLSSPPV

The next assay deals with VEGFR1 (Homo sapiens, UniProt P17948). As to the kind of experiment: VEGFR1 Kinase. It is filed as biochemical.
Chain of VEGFR1 (P17948 27-1338, species assumed): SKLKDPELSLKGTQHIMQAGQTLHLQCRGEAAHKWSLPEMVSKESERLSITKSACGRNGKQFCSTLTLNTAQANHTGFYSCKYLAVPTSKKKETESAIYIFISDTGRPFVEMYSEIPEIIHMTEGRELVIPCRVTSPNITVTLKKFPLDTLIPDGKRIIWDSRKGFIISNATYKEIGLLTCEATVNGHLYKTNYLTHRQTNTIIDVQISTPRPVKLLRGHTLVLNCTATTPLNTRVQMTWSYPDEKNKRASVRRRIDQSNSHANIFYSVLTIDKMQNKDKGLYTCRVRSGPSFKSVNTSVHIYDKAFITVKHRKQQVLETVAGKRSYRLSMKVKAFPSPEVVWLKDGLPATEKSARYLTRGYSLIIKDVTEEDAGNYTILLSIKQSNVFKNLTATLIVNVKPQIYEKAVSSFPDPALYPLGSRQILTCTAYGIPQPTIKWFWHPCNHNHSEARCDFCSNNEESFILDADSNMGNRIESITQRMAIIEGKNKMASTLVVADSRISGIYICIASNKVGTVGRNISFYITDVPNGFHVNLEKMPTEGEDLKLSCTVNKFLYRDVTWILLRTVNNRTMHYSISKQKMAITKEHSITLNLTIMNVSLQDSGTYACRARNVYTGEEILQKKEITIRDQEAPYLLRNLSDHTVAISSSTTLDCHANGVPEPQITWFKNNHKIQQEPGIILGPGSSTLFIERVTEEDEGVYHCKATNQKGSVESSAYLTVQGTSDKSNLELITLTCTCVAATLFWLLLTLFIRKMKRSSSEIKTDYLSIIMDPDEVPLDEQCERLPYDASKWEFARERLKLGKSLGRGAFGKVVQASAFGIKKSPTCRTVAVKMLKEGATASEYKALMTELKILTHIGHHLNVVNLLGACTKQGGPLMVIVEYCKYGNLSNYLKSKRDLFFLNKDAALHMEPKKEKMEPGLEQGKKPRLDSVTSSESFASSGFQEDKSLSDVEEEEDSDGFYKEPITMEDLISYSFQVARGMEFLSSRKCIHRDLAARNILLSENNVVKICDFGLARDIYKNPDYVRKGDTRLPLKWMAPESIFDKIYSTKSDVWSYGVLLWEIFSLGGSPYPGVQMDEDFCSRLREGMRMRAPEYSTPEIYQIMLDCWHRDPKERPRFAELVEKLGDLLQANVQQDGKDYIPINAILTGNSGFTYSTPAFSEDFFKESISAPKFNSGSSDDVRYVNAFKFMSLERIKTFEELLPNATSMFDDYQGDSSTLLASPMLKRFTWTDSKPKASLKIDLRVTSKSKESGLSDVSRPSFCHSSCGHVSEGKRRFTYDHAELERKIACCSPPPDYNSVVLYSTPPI

T1 sequence (P09619 554-1106 limits assumed): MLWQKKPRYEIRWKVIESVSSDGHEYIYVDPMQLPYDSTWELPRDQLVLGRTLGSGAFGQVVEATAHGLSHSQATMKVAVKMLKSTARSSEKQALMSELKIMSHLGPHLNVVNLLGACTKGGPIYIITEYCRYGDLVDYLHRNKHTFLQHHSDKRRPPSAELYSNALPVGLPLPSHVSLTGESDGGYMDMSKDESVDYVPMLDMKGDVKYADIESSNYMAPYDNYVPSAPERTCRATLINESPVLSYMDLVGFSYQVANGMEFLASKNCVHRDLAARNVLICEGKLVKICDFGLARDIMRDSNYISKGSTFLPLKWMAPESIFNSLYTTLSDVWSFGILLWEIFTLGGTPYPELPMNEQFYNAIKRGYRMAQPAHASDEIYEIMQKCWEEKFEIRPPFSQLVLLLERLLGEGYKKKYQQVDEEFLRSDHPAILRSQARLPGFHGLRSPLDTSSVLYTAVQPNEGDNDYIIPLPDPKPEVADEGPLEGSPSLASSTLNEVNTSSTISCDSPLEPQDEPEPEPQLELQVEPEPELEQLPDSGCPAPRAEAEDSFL

In the case of `COC(=O)CCCCS(=O)(CCCCC(=O)OC)=NC(=O)c1cnc(N)c(C#Cc2cccc(NC(=O)c3cc(C)ccc3F)c2)c1` [Example 7, Dimethyl 5,5′-(N-{[6-amino-5-({3-[(2-fluoro-5-methylbenzoyl)amino]phenyl}ethynyl)pyridin-3-yl]carbonyl}sulfonimidoyl)dipentanoate], the IC50 is 29 nM against PDGFRβ, 11 nM against VEGFR2 [1], 49 nM on VEGFR2 [2] and 13 nM against VEGFR1.
For `COC(=O)CCCCS(=O)(CCCCC(=O)OC)=NC(=O)c1cnc(N)c(C#Cc2cccc(C(=O)Nc3cc(C)ccc3F)c2)c1` [Example 14, Dimethyl 5,5′-[N-({6-amino-5-[(3-{[(2-fluoro-5-methylphenyl)amino]carbonyl}phenyl)ethynyl]pyridin-3-yl}carbonyl)sulfonimidoyl]dipentanoate] the same measures were 50 nM, 11 nM, less than 1 nM and 14 nM.
With `COC(=O)CCCCS(=O)(CCCCC(=O)OC)=NC(=O)c1cnc(N)c(C#Cc2ccc(NC(=O)Nc3cc(C)ccc3F)cc2)c1` [Example 19, Dimethyl 5,5′-{N-[(6-amino-5-{[4-({[(2-fluoro-5-methylphenyl)amino]carbonyl}amino)phenyl]ethynyl}pyridin-3-yl)carbonyl]sulfonimidoyl}dipentanoate], the IC50 against PDGFRβ stood at 20 nM; against VEGFR2 [1] it was 13 nM; on VEGFR2 [2] it was 5 nM; at VEGFR1, 23 nM.
